# In patent US5573926A, “Process for obtaining aroma components and aromas from their precursors of a glycosidic nature, and aroma components and aromas thereby obtained” (Gist-brocades, N.V., priority 1989, dated 1996):
# Key:
# α-arabinosidase = test: Enzymatic hydrolysis of the muscat glycosidic extract by α-arabinosidase (GC); assay type: biochemical
# Method: (§1) 40 μl of glycosidic extract and 60 μl of a solution of Glc-pNP (internal standard) at a concentration of 50 mg/1 in ethyl acetate are introduced into a suitable flask. The mixture is taken to dryness at 40° C. with a stream of nitrogen. 40 μl of the silylating reagent (Tri-sil, Pierce, Rockford, Ill., U.S.A.) are then introduced; the flask is sealed and maintained at 40° C. for 20 minutes. After rapid cooling, the silylated sample is then ready for analysis by GC.
# (§2) The apparatus used consists of a Series 30C gas chromatograph, an "on-column" injector (injected volume 0.5 μl) and a flame ionization detector (Girdel, France). A thin film (0.20 μm) of an OV-1 (Girdel) apolar silicone phase is grafted onto the inner wall of the capillary column ([…].). The oven temperature is programmed from 125 to 305° C. at the rate of 5° C./minute, then maintained at 305° C. for 15 minutes. Finally, the detector temperature is set at 300° C. and hydrogen is used as the carrier gas at a pressure of 120 kPa.
# (§3) The experimental protocols for the enzymatic hydrolysis on the glycosidic extract are collated in Table 3. […]
# [1] = Vinification of Muscat of Frontignan must with Klerzyme 200, free and bound aroma components by GC
# Method: After storing for 1.5 months at 20°-22° C., the free and bound aroma component fractions of each sample were extracted on an Amberlite XAD-2 column in 50 ml aliquots, and analyzed via GC.
# In another aspect, the action of an enzyme preparation (Klerzyme 200) containing β-apiosidase activity, in addition to α-rhamnosidase, α-arabinosidase and β-glucosidase activity, was studied during the fermentation of dry wines from the Muscat of Frontignan must. Klerzyme 200 (containing (per liter must) 2,770 nkat β-glucosidase, 704 nkat β-apiosidase, 276 nkat α-arabinosidase and 35 nkat α-rhamnosidase) and 10 g/hl of a wine yeast (Saccharomyces cerevisiae, type K1) were added to the must.
# β-glucosidase [2] = settings: cited from earlier work
# β-glucosidase [3] = test: Second stage: consecutive action of β-glucosidase on the pre-incubated glycosidic extract (GC); assay type: biochemical, sweet almond; settings: 0.15 nkat, 40°, 16 h
# Method: as §1, §2, §3
# [4] = molecular target: T1, β-glucosidase of Klerzyme 200 (Aspergillus niger, UniProt A2RAL4); test: Hydrolysis of Hemicellulase-pretreated glycosidic extract by Klerzyme 200 (GC); assay type: biochemical; settings: glycosidic extract pretreated with Hemicellulase
# T1 sequence (A2RAL4 20-860): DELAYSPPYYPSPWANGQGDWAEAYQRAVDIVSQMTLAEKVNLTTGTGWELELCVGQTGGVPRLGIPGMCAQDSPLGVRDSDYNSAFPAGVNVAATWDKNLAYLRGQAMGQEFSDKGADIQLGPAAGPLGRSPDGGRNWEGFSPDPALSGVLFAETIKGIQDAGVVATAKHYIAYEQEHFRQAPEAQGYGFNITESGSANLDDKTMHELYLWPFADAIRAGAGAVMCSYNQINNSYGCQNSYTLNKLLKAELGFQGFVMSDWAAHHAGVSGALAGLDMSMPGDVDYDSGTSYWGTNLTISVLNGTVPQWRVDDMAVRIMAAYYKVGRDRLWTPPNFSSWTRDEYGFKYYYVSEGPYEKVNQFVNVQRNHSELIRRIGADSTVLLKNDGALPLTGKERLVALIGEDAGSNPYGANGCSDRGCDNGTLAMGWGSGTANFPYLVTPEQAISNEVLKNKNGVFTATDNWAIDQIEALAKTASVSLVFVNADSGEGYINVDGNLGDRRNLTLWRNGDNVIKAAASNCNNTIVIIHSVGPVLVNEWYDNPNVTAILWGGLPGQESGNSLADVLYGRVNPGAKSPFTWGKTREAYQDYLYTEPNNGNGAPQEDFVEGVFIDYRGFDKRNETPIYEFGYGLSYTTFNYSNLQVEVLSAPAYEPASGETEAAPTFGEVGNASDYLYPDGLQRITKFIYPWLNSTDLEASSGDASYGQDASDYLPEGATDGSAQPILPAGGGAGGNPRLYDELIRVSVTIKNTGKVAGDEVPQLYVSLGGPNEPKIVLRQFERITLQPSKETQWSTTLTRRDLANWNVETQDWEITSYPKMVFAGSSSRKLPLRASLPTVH
# From the text: In another aspect, the action of the β-apiosidase on a glycosidic extract (FIG. 11A) was studied after the action of the Hemicellulase preparation (containing α-rhamnosidase, α-arabinosidase and β-glucosidase activities) on this extract. The Hemicellulase preparation eliminated the rhamnosyl- and arabinosylglucosides (FIG. 11B). Afterwards, the apiosylglucosides remaining were subjected to the hydrolytic action of the β-apiosidase and β-glucosidase of Klerzyme 200 (FIG. 11C). […] This is attributable to the weak affinity of the β-glucosidase of Klerzyme 200, vis-a-vis the linalyl glucosides.
# α-rhamnosidase = test: Enzymatic hydrolysis of the muscat glycosidic extract by α-rhamnosidase (GC); assay type: biochemical; settings: 0.15 nkat, 40° C., 16 h
# Method: as §1, §2, §3
# β-apiosidase = test: Enzymatic hydrolysis of Api-Glc-Ger by β-apiosidase present in Klerzyme 200 (TLC); assay type: biochemical
# Method: The β-apiosidase present in a commercial enzyme preparation (Klerzyme 200, Gist-brocades, France) was used without further purification.
# Thin-layer adsorption chromatography was carried out on pieces of aluminium foil covered with a thin layer (0.2 mm) of silica gel (5553 Silica gel 60 without a fluorescence indicator, Merck). An ethyl acetate/isopropanol/water (65:30:10 v/v/v) mixture was used as a migration solvent.
# The sugars and the glycosides are visualized by means of the following mixture, prepared immediately before use: 0.2% naphthoresorcinol in ethanol/concentrated sulphuric acid (19:1 v/v). The application of this visualizing agent is followed by drying the plates in the oven (105° C.) for 15 minutes. Apart from their migration distance, the various compounds are also distinguished by their colour. The glycosides are purple-red, the arabinosides are bluish, the apiosides are green, rhamnose greenish pink, arabinose blue, apiose green and glucose pink.
# In all the tests relating to the enzymatic hydrolysis of the synthetic substrates, the same glycosidase activity (0.15 nkat) is used for each of the enzymes (α-arabinosidase, apiosidase, α-rhamnosidase, β-glucosidase).
Compound,"Terpene monoglucosides liberated by α-arabinosidase from a glycosidic extract (α-arabinosidase; 0.15 nkat, 40° C., 16 h)",% of monoglucosides (liberated by the two enzymes together) (α-arabinosidase; sum of α-arabinosidase and α-rhamnosidase),hydrolysis by Klerzyme 200 during vinification of dry wine [1],affinity of the sweet almond β-glucosidase for the substrate (β-glucosidase [2]),"hydrolysis by consecutive action of β-glucosidase (second stage, GC) (β-glucosidase [3]; listed as linalyl glucoside)","hydrolysis by consecutive action of β-glucosidase (second stage, GC) (β-glucosidase [3]; listed as linanyl monoglucoside)",hydrolysis by the β-glucosidase of Klerzyme 200 [4],Terpene monoglucosides liberated by α-rhamnosidase from a glycosidic extract (α-rhamnosidase),hydrolysis by β-apiosidase present in Klerzyme 200 (TLC) (β-apiosidase)
"C=CC(C)(CCC=C(C)C)O[C@@H]1O[C@H](CO)[C@@H](O)[C@H](O)[C@H]1O (stereo partly drawn) [Glc-Lin, linalyl β-D-glucopyranoside]",10%,19%,not hydrolyzed,low affinity,incomplete hydrolysis,reduction,not hydrolyzed,9%,
"CC(C)=CCC/C(C)=C/CO[C@@H]1O[C@H](CO[C@@H]2OC[C@](O)(CO)[C@H]2O)[C@@H](O)[C@H](O)[C@H]1O [Api-Glc-Ger, geranyl β-D-apiofuranosyl-(1→6)-β-D-glucopyranoside]",,,,,,,,,disappearance of the substrate and the appearance of apiose and glucose
